Test results as given in patent US4670432A, “Pyrazolopyridine derivatives useful in treating inflammation and allergic conditions” (Beecham Group p.l.c., priority 1984, dated 1987).

Experiments:
[1] = tested on: cantharidin mouse ear; experiment: Mouse Cantharidin Screen (topical anti-inflammatory activity); type: in vivo; settings: applied with cantharidin, 24 h
Procedure: Compounds were tested for topical anti-flammatory activity in a cantharidin mouse ear screen, modified from Swingle et al [Swingle, K. F., Reiter, M. J. and Schwartzmiller, D. H., Arch. Int. Pharmacodyn. (1981), 254, 168-176].
25 μg cantharidin (in 10 μl THF/MeOH) was applied to both ears. Compound, in the same solvent, was applied at the same time, to the left ear only. Ears were weighed 24 h after cantharidin application. Percentage inhibition of the acute inflammatory swelling refers to the increase in weight of left ears (catharidin plus compound) compared with solvent-treated negative controls, as a proportion of the increase in weight of right ears (cantharidin alone) over similar controls.

[2] = tested on: mouse sensitised to oxazolone; experiment: Mouse Oxazolone Screen (topical anti-inflammatory activity); type: in vivo; settings: 1 h before oxazolone challenge, ears weighed 24 h later
Procedure: Compounds were tested for topical anti-inflammatory activity in a screen using the mouse sensitised to oxazolone, by a method modified from that of Dietrich and Hess [Dietrich, F. M., and Hess, R., Int. Arch. Allergy, (1970), 38, 246-259].
Mice were sensitised with oxazolone (2 mg in 20 μl ethanol) on a shaved area of the abdomen. Five days later, the animals received 10 μl THF/MeOH (1:1 v/v) on the right ear, and the test compound in the same solvent on the left ear. One hour later, the animals were challenged with 100 μg oxazolone in 10 μl acetone on each ear. Ear weights were measured 24 h later. Percentage inhibition of the inflammatory swelling refers to the increase in weight of left ears (oxazolone plus compound) compared with solvent-treated negative controls, as a proportion of the increase in weight of right ears (oxazolone alone) over similar controls.

[3] = tested on: 5-Lipoxygenase; experiment: RBL-1 5-Lipoxygenase Screen; type: biochemical; settings: 20 μM; 10,000 g supernatant from RBL-1 cells, 29° C.
Procedure: 5-Lipoxygenase enzyme was prepared as a 10,000 g supernatant from RBL-1 cells by the method of Jakschik [Jakschik, B. A., Sun, F. F., Lee, L. M. and Steinhoff, M. M., 1980, Biochem. Biophys. Res. Comm. 95, 103]. The 10,000 g supernatant was diluted with homogenization buffer to the equivalent of 1.5-2.5×10^7 cells ml^-1 and made 2 mM with respect to CaCl2. Aliquots of 0.5 ml were then dispensed into tubes, and incubated at 29° C. with 5 γl ethanol or compound in ethanol at the desired concentration for 2 min. Then [1-^14 C] arachidonic acid was added in buffer to give a final concentration of 6.3. μm and 0.2 μCi per incubation, and the reaction continued at 29° C. for 2 min. The reaction was terminated by adding 1 ml of acetone and cooling on ice. 0.5 ml of ice cold saline and 10 μl of 2N formic acid were added, and the mixture was extracted with 2×2 ml of chloroform. The extract was stored under N2 at -20° C. until analysis by chromatography. Activity was measured as the percentage of total radioactivity found in 5-HETE and 5,12-diHETE, and inhibition calculated as the decrease in formation of the sum of these two species in compound-treated incubates relative to control incubates.

Compound	% Inhibition (acute inflammatory swelling, ear weight) ([1]; 200 μg/ear)	% Inhibition (inflammatory swelling, ear weight) ([2]; 200 μg/ear)	inhibition (decrease in formation of 5-HETE and 5,12-diHETE) [3]	% Inhibition (inflammatory swelling, ear weight) ([2]; 500 μg/ear)	% Inhibition (acute inflammatory swelling, ear weight) ([1]; 500 μg/ear)
C=CCNc1cc(C)nc2cn[nH]c12 [Example 1, 7-Allylamino-5-methyl-1H-pyrazolo[4,3-b]pyridine]	88%	62%	39%		
Cc1cc(NCCCO)c2[nH]ncc2n1 [Example 2, 7-[3-hydroxypropylamino]-5-methyl-1H-pyrazolo[4,3-b]pyridine]	82%			82%	
Cc1cc(NCCO)c2[nH]ncc2n1 [Example 3, 7-[2-Hydroxyethylamino]-5-methyl-1H-pyrazolo[4,3-b]pyridine]	76%	65%			
COCCNc1cc(C)nc2c[nH]nc12 [Example 4]	57%	52%			
C=CCNc1cc(C)nc2cn(C)nc12 [Example 5, 7-Allylamino-2,5-dimethyl-pyrazolo[4,3-b]pyridine]	68%	71%			
Cc1cc(NCCCN(C)C)c2[nH]ncc2n1 [Example 6, 7-[3-Dimethylaminopropylamino]-5-methyl-1H-pyrazolo[4,3-b]pyridine]					97%
C=CCNc1ccnc2cn[nH]c12 [Example 7, 7-Allylamino-1H-pyrazolo[4,3-b]pyridine]					83%
